Data taken from the supplement of paper PMC10307832.

Experiments:
Assay in all cases: relative viability (nuclei count vs DMSO), 5 days (fraction); higher = more cells survive
[1] = compound: COc1cc(Nc2ncc(F)c(Nc3ccc4c(n3)NC(=O)C(C)(C)O4)n2)cc(OC)c1OC [R406] + O=C(c1cc(Cc2n[nH]c(=O)c3ccccc23)ccc1F)N1CCN(C(=O)C2CC2)CC1 [Olaparib] (partner 8 µM)
Summary of the method: (§1)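 Cells from lung cancer lines were seeded into 1536-well plates and, one day later, dosed by pin tool. Treatments were either a single drug or a fixed dose of an anchor drug with five library-drug doses (not always all listed) in √10 steps. After 5 days, nuclei were stained in a one-step fixation (final 0.05% Triton X-100, 1% formaldehyde, 1 ug/ml Hoechst) and counted on 4× images, and relative viability is the treated-to-vehicle nuclei ratio, as the median of duplicate plates.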

[2] = compound: COc1cc(Nc2ncc(F)c(Nc3ccc4c(n3)NC(=O)C(C)(C)O4)n2)cc(OC)c1OC [R406] + CS(=O)(=O)N1CCN(Cc2cc3nc(-c4cccc5[nH]ncc45)nc(N4CCOCC4)c3s2)CC1 [Pictilisib] (partner 1 µM)
Summary of the method: as §1

[3] = compound: COc1cc(Nc2ncc(F)c(Nc3ccc4c(n3)NC(=O)C(C)(C)O4)n2)cc(OC)c1OC [R406] + CC(C)C[C@H](NC(=O)[C@H](Cc1ccccc1)NC(=O)c1cnccn1)B(O)O [Bortezomib] (partner 0.002 µM)
Summary of the method: as §1

[4] = compound: O=C(/C=C/c1cccnc1)NCCCCC1CCN(C(=O)c2ccccc2)CC1 [Daporinad] + Cc1nc(Nc2ncc(C(=O)Nc3c(C)cccc3Cl)s2)cc(N2CCN(CCO)CC2)n1 [Dasatinib] (partner 0.075 µM)
Summary of the method: as §1

Row | Cell Line | relative viability ([1]; first compound 0.08 µM) | relative viability ([1]; first compound 0.253 µM) | relative viability ([1]; first compound 0.8 µM) | relative viability ([1]; first compound 2.53 µM) | relative viability ([1]; first compound 8 µM) | relative viability ([2]; first compound 0.08 µM) | relative viability ([2]; first compound 0.253 µM) | relative viability ([2]; first compound 0.8 µM) | relative viability ([2]; first compound 2.53 µM) | relative viability ([2]; first compound 8 µM) | relative viability ([3]; first compound 0.08 µM) | relative viability ([3]; first compound 0.253 µM) | relative viability ([3]; first compound 0.8 µM) | relative viability ([3]; first compound 2.53 µM) | relative viability ([3]; first compound 8 µM) | relative viability ([4]; first compound 0.0005 µM) | relative viability ([4]; first compound 0.001581 µM) | relative viability ([4]; first compound 0.005 µM) | relative viability ([4]; first compound 0.01581 µM)
1 | NCI-H1437 | 0.611 | 0.622 | 0.647 | 0.546 | 0.431 | 0.368 | 0.535 | 0.367 | 0.236 | 0.231 | 0.392 | 0.768 | 0.675 | 0.259 | 0.226 | 0.342 | 0.47 | 0.4 | 0.415
2 | SW 1573 | 0.492 | 0.57 | 0.607 | 0.399 | 0.158 | 0.45 | 0.499 | 0.543 | 0.422 | 0.31 | 0.994 | 1.23 | 1.35 | 0.768 | 0.569 | 0.339 | 0.801 | 0.446 | 0.367
3 | H3255 | 0.556 | 0.607 | 0.545 | 0.512 | 0.475 | 0.48 | 0.533 | 0.495 | 0.347 | 0.331 | 0.852 | 0.912 | 0.686 | 0.865 | 0.457 | 0.391 | 0.387 | 0.491 | 0.443
4 | Calu-6 | 0.556 | 0.571 | 0.576 |  | 0.271 | 0.861 | 0.957 | 1.01 | 0.585 | 0.369 | 0.997 | 1.06 | 1.04 | 0.631 | 0.557 |  |  |  | 
5 | NCI-H1792 | 0.456 | 0.402 | 0.491 | 0.189 | 0.194 | 0.264 | 0.193 | 0.302 | 0.161 | 0.164 | 0.981 | 0.909 | 1.04 | 0.851 | 0.861 | 0.617 | 0.815 | 0.477 | 0.921
6 | NCI-H2170 | 0.63 | 0.573 | 0.648 | 0.44 | 0.488 | 0.307 | 0.269 | 0.302 | 0.194 | 0.24 |  |  |  |  |  | 0.631 | 0.465 | 0.616 | 0.566
7 | NCI-H1650 | 0.911 | 0.808 | 0.798 | 0.787 | 0.647 | 0.645 | 0.668 | 0.652 | 0.148 | 0.122 | 0.244 | 0.214 | 0.18 | 0.208 | 0.197 | 0.379 | 0.366 | 0.325 | 0.247
8 | EBC-1 | 0.671 | 0.783 | 0.843 | 0.644 | 0.369 | 0.462 | 0.371 | 0.528 | 0.26 | 0.162 | 0.606 | 0.616 | 0.672 | 0.44 | 0.231 |  |  |  | 
9 | NCI-H2342 | 0.395 | 0.415 | 0.447 | 0.355 | 0.439 |  |  |  |  |  |  |  |  |  |  | 0.316 | 0.299 | 0.339 | 0.295
10 | NCI-H358 | 0.562 | 0.617 | 0.632 | 0.279 | 0.209 | 0.336 | 0.323 | 0.319 | 0.272 | 0.228 |  |  |  |  |  | 0.135 | 0.174 | 0.175 | 0.158
11 | SK-MES-1 | 0.613 | 0.677 | 0.715 | 0.327 | 0.174 | 0.34 | 0.325 | 0.333 | 0.234 | 0.195 |  |  |  |  |  | 0.417 | 0.474 | 0.315 | 0.437
12 | NCI-H1563 |  |  |  |  |  | 0.678 | 0.656 | 0.726 | 0.594 | 0.492 | 0.764 | 1 | 0.873 | 0.523 | 0.574 | 0.43 | 0.423 | 0.497 | 0.458
13 | NCI-H1623 |  |  |  |  |  |  |  |  |  |  |  |  |  |  |  | 0.537 | 0.463 | 0.542 | 0.525
14 | NCI-H1299 | 0.972 | 0.986 | 0.957 | 1.05 | 0.731 | 0.791 | 0.816 | 0.874 | 0.427 | 0.162 | 1 | 1.02 | 1.02 | 1.04 | 1.04 |  |  |  | 
15 | NCI-H1944 | 0.35 | 0.382 | 0.38 | 0.361 | 0.328 | 0.316 | 0.344 | 0.348 | 0.265 | 0.279 |  |  |  |  |  | 0.228 | 0.232 | 0.221 | 0.237
16 | NCI-H1395 | 0.455 | 0.475 | 0.444 | 0.421 | 0.362 | 0.643 | 0.668 | 0.678 | 0.581 | 0.378 |  |  |  |  |  | 0.361 | 0.464 | 0.419 | 0.422
17 | NCI-H522 | 0.518 | 0.578 | 0.713 | 0.636 | 0.511 |  |  |  |  |  |  |  |  |  |  | 1.01 | 0.924 | 0.88 | 0.843
18 | A549 | 0.28 | 0.464 | 0.328 | 0.0554 | 0.306 | 0.519 | 0.694 | 0.6 | 0.265 | 0.0797 |  |  |  |  |  |  |  |  | 
19 | NCI-H1648 | 0.758 | 1.06 | 0.906 | 0.886 | 0.884 |  |  |  |  |  |  |  |  |  |  |  |  |  | 
20 | SW 900 | 0.956 | 0.855 | 0.57 | 0.492 | 0.115 |  |  |  |  |  |  |  |  |  |  | 0.53 | 0.574 | 0.716 | 0.436
21 | IA-LM | 0.835 | 1.03 | 0.913 | 0.986 | 0.882 | 0.443 | 0.475 | 0.359 | 0.409 | 0.264 | 0.878 | 0.841 | 0.815 | 0.904 | 0.705 |  |  |  | 
22 | LK-2 | 0.592 | 1.13 | 0.888 | 0.661 | 0.305 | 0.462 | 0.637 | 0.427 | 0.462 | 0.304 |  |  |  |  |  | 0.266 | 0.343 | 0.33 | 0.193
23 | HCC-44 | 0.95 | 1 | 0.954 | 0.989 | 1.06 | 0.569 | 0.647 | 0.611 | 0.526 | 0.335 | 0.927 | 1.07 | 1 | 0.312 | 0.603 |  |  |  | 
